Read-outs that look alike come from different tables or passages of the source.
Legend:
S. aureus ATCC 13709 = experiment: Antibacterial susceptibility (MIC) in the presence of serum; format: cell-based; conditions: for MIC: Staphylococcus aureus, ATCC13709, 18 h
[1] = tested on: S. aureus (chronic bone infection); experiment: Treatment of chronic osteomyelitis caused by S. aureus in rat model; format: in vivo; conditions: for Decrease in bacterial titer / Effect on bacterial titer in bone infection versus the untreated control (figure legends): prodrug iv at 20 mg/kg parent equivalent; for Decrease in bacterial titer: q24hx4+q4 days, FIGS. 3, 4, 5; for Effect on bacterial titer in bone infection versus the untreated control (figure legends): regimen of the figure, 4 weeks post-infection
Text: To appraise the ability of bisphosphonated prodrugs of Rifamycin derivatives in treating chronic bone infections, a comparison was made between parent compounds 9, 56, 69, rifabutin and rifalazil (all of which are non-bisphosphonated rifamycin derivatives), and their corresponding bisphosphonated prodrugs, respectively 11, 62, 71, 36 and 81, when used to treat chronically (14- to 28-day) infected rats for 4 weeks of antimicrobial therapy.
In this experiment, rats were infected as described in Example 4 and treated with either 20 mg/kg of body weight of the specific rifamycin derived antibacterial agent subcutaneously, or a molar equivalent dose of its bisphosphonated prodrug intravenously according to the indicated schedule after instillation of bacteria. The standard controls involving no treatment and a subcutaneous treatment of 20 mg/kg of Rifampicin daily were also included. The rats were humanely sacrificed at the conclusion of the experiment and the bacterial titers in the infected tibiae were determined.
This experiment was performed with 20 mg/kg of body weight of rifamycin derivative 9 subcutaneously or with 32 mg/kg of its prodrug 11 (corresponding to 20 mg/kg of 9) intravenously on each of the 20th, 24th, 28th, 32nd, 36th, 40th and […] days (q4 days) after instillation of bacteria. Alternatively, 11 was administered by the same route and at the same dose on the 20th, 21st, 22nd, 23rd, 30th, 37th, 44th and 47th days (q24hx4+q7d) after the instillation of bacteria. The same controls (no treatment or daily subcutaneous 20 mg/kg dose of rifampicin) were used. The rats were humanely sacrificed on the 48th day after the initiation of infection and the bacterial titers in the infected tibiae were determined.
This experiment was also executed in which similarly infected rats were treated with either 20 mg/kg of body weight of rifabutin subcutaneously or with 33.4 mg/kg of its prodrug 36 (corresponding to 20 mg/kg of rifabutin) intravenously on each of the 28th, 32nd, 36th, 40th, 44th, 48th and 52nd days (q4 days) after instillation of bacteria. The same controls (no treatment or daily subcutaneous 20 mg/kg dose of rifampicin) were used. The rats were humanely sacrificed on the 55th day after the initiation of infection and the bacterial titers in the infected tibiae were determined.
This experiment was also executed in which similarly infected rats were treated with either 20 mg/kg of body weight of the rifamycin derived antibacterial agent 56 subcutaneously or with 26 mg/kg of its prodrug 62 (corresponding to 20 mg/kg of 56) intravenously on each of the 27th, 28th, 29th, 30th, 34th, 38th, 42nd, 46th and 50th days (q24hx4+q4 days) after instillation of bacteria. The same controls (no treatment or daily subcutaneous 20 mg/kg dose of rifampicin) were used. The rats were humanely sacrificed on the 51^St day after the initiation of infection and the bacterial titers in the infected tibiae were determined.
This experiment was also executed in which similarly infected rats were treated with either 20 mg/kg of body weight of the rifamycin derived antibacterial agent 69 subcutaneously or with 28 mg/kg of its prodrug 71 (corresponding to 20 mg/kg of 69) intravenously on each of the 18th, 19th, 20th, 21st, 25th, 29th, 33rd, 37th, 41st and 45th days (q24hx4+q4 days) after instillation of bacteria. The same controls (no treatment or daily subcutaneous 20 mg/kg dose of rifampicin) were used. The rats were humanely sacrificed on the 46th day after the initiation of infection and the bacterial titers in the infected tibiae were determined.

[2] = Levels of compound 9 in rat tibiae (microbiological assay); format: in vivo; conditions: for Amount of compound 9 in the uninfected tibiae: dose equivalent to 10 mg/kg of 9 (11: 15.5 mg/kg), three days prior to infection
Protocol: The experimentally obtained intact uninfected (contra lateral) tibia of the treated and infected rats described above was ground to a powder which was suspended in PBS+2% DMSO. The mixture was centrifuged for 2 min at 13,000 rpm. The amount of compound 9 released in the supernatant was determined by microbiological assay as described previously (Example 3).

[3] = FIG. 1: 9 20 mg/kg sc q4 days, 11 32 mg/kg iv q4d or q24hx4+q7d

Compound	Minimum inhibitory concentration, S. aureus ATCC 13709 + 50% Human Serum (S. aureus ATCC 13709)	Minimum inhibitory concentration, S. aureus ATCC 13709 + 50% Mouse Serum (S. aureus ATCC 13709)	Minimum inhibitory concentration, S. aureus ATCC 13709 + 50% Rat Serum (S. aureus ATCC 13709)	Decrease in bacterial titer [1]	Effect on bacterial titer in bone infection versus the untreated control (figure legends) [1]	MIC (S. aureus ATCC 13709; read-out: Minimum inhibitory concentration, S. aureus ATCC 13709 + 50% Human Serum)	MIC (S. aureus ATCC 13709; read-out: Minimum inhibitory concentration, S. aureus ATCC 13709 + 50% Mouse Serum)	MIC (S. aureus ATCC 13709; read-out: Minimum inhibitory concentration, S. aureus ATCC 13709 + 50% Rat Serum)	Effect on bacterial titer in bone (in words) ([1]; 20 mg/kg sc once daily, 15th to 28th day after infection, FIG. 6)	Effect on bacterial titer in bone (in words) [1, 3]	Amount of compound 9 in the uninfected tibiae [2]	Impact of serum on the MICs (in words) (S. aureus ATCC 13709)	Level of compound 9 in uninfected tibia ([2]; 11 at 32 mg/kg once weekly for 4 weeks after the infection)
CO[C@H]1/C=C/O[C@@]2(C)Oc3c(C)c(O)c4c(=O)c(c5oc6cc(N7CCN(CCC(=O)c8ccc(OCCCC(P(=O)(O)O)P(=O)(O)O)cc8)CC7)cc(O)c6nc-5c4c3C2=O)NC(=O)/C(C)=C\C=C\[C@H](C)[C@H](O)[C@@H](C)[C@@H](O)[C@@H](C)[C@H](OC(C)=O)[C@@H]1C [Compound 71]	0.032 µg/mL	0.032 µg/mL	0.032 µg/mL	approximately 1 logarithmic order of magnitude	small but statistically significant effect	–	–	–	–	–	–	–	–
CO[C@H]1/C=C/O[C@@]2(C)Oc3c(C)c(O)c4c(=O)c(c5oc6cc(N7CCN(CC(C)C)CC7)cc(O)c6nc-5c4c3C2=O)NC(=O)/C(C)=C\C=C\[C@H](C)[C@H](OC(=O)CCCOC(=O)CCC(=O)NC(P(=O)(O)O)P(=O)(O)O)[C@@H](C)[C@@H](O)[C@@H](C)[C@H](OC(C)=O)[C@@H]1C [Compound 81, 21-O-(4-((3-(bisphosphonomethyl)carbamoyl)propanoyloxy)butanoyl)-1′,4-Didehydro-1-deoxy-1,4-dihydro-3′-hydroxy-5′-[4-(2-methylpropyl)-1-piperazinyl]-1-oxorifamycin VIII]	0.125 µg/mL	0.0625 µg/mL	0.03125 µg/mL	approximately 1 logarithmic order of magnitude	small but statistically significant effect	–	–	–	–	–	–	–	–
CO[C@H]1/C=C/O[C@@]2(C)Oc3c(C)c(O)c4c(O)c(c(/C=N/N5CCN(CCO)CC5)c(O)c4c3C2=O)NC(=O)/C(C)=C\C=C\[C@H](C)[C@H](O)[C@@H](C)[C@@H](O)[C@@H](C)[C@H](OC(C)=O)[C@@H]1C [Compound 9, 3-(((4-(2-hydroxyethyl)-1-piperazinyl)imino)methyl)rifamycin]	–	–	–	–	–	0.062 µg/mL	0.062 µg/mL	0.062 µg/mL	smaller but still statistically significant reduction	completely ineffective	< 0.17 µg/g	–	–
CO[C@H]1/C=C/O[C@@]2(C)Oc3c(C)c(O)c4c(=O)c(c5oc6cc(N7CCN(CCOC(=O)CCC(=O)NC(P(=O)(O)O)P(=O)(O)O)CC7)cc(O)c6nc-5c4c3C2=O)NC(=O)/C(C)=C\C=C\[C@H](C)[C@H](O)[C@@H](C)[C@@H](O)[C@@H](C)[C@H](OC(C)=O)[C@@H]1C.N.N [Compound 62]	0.032 µg/mL	0.032 µg/mL	0.0156 µg/mL	approximately 1 logarithmic order of magnitude	small but statistically significant effect	–	–	–	–	–	–	–	–
3-(((4-(2-(3-((bisphosphonomethyl)carbamoyl)propanoyloxy)ethyl)-1-piperazinyl)imino)methyl)rifamycin [Compound 11]	0.25 µg/mL	0.25 µg/mL	0.25 µg/mL	–	small but not statistically significant effect	–	–	–	–	not statistically significant	0.88 ± 0.11 µg/g	no impact	1.28±0.18 μg/g of bone

— patent US8404664B2, “Phosphonated Rifamycins and uses thereof for the prevention and treatment of bone and joint infections” (Targanta Therapeutics, Inc., priority 2005, dated 2013)
